This is an account of results in patent US6087119A, “Method for determining the catalytic activity of factor IXa” (Roche Diagnostics GmbH, priority 1996, dated 2000).

The target in the experiment is rFIXa (human) (Homo sapiens, UniProt P00740). Description: Determination of the dissociation constant Ki according to DIXON, rFIXa. Set-up: coding for the FIX protease domain from amino acid position 181 to 415; Met (ATG start codon) (N); made in house. The settings on record: pH 8.5, 33% ethylene glycol. Type of experiment: biochemical. How it is done: Determination of the Dissociation Constant Ki According to the Method of DIXON
Chain of rFIXa (human) (P00740 227-461 limits assumed): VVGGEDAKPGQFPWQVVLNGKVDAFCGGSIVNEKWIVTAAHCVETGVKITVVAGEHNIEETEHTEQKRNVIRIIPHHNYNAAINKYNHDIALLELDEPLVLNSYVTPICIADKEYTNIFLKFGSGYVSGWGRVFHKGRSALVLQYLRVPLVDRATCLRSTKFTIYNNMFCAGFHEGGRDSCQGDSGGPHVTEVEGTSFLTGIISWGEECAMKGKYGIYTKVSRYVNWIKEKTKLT
Chain of rFIXa (human) (P00740 131-226 limits assumed): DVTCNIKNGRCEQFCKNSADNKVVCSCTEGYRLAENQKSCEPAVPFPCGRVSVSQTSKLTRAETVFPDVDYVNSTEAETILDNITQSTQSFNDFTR
42 mmol/l Tris-HCl, pH 8.5
inhibitor in stepped concentrations (0, 20.4 and 40.8 μmol/l) […]
0.14 μmol/l rFIXa (human) […]
TIPPS-(3-Am)Phe-iNip-OH was used as the inhibitor and the inhibitory effect was determined as an example for two substrates under optimal conditions (pH 8.5, 33% ethylene glycol).

What is called Ki is the equilibrium dissociation constant of an inhibitor or competing ligand from its target. Regarding `CC(C)c1cc(C(C)C)c(S(=O)(=O)NC(Cc2cccc(C(=N)N)c2)C(=O)N2CCC(C(=O)O)CC2)c(C(C)C)c1` (centres unmarked) [TIPPS-(3-Am)Phe-iNip-OH, Nα-(2,4,6-triisopropylbenzenesulfonyl)-3-amidino-(D,L)-phenylalanine-isonipecotic acid], the 1/V runs as follows: (inhibitor 20.4 μmol/l, MeSO2-D-CHG-Gly-Arg-pNA 0.25 μmol/l, 0.057 μmol/l rFIXa) 78.1 min/mA; (inhibitor 20.4 μmol/l, MeSO2-D-CHG-Gly-Arg-pNA 0.51 μmol/l, 0.057 μmol/l rFIXa) 55.6 min/mA; (inhibitor 20.4 μmol/l, MeSO2-D-CHG-Gly-Arg-pNA 1.02 μmol/l, 0.057 μmol/l rFIXa) 23.8 min/mA; (inhibitor 20.4 μmol/l, MeSO2-D-HHT-Gly-Arg-pNA 0.25 μmol/l, 0.14 μmol/l rFIXa) 69.4 min/mA; (inhibitor 20.4 μmol/l, MeSO2-D-HHT-Gly-Arg-pNA 0.51 μmol/l, 0.14 μmol/l rFIXa) 43.5 min/mA; (inhibitor 20.4 μmol/l, MeSO2-D-HHT-Gly-Arg-pNA 1.02 μmol/l, 0.14 μmol/l rFIXa) 16.6 min/mA. In addition, the 1/V (inhibitor 40.8 μmol/l, MeSO2-D-CHG-Gly-Arg-pNA 0.25 μmol/l, 0.057 μmol/l rFIXa) was 153 min/mA; the 1/V (inhibitor 40.8 μmol/l, MeSO2-D-CHG-Gly-Arg-pNA 0.51 μmol/l, 0.057 μmol/l rFIXa) stood at 109 min/mA; the 1/V (inhibitor 40.8 μmol/l, MeSO2-D-CHG-Gly-Arg-pNA 1.02 μmol/l, 0.057 μmol/l rFIXa) is 44.6 min/mA; the 1/V (inhibitor 40.8 μmol/l, MeSO2-D-HHT-Gly-Arg-pNA 0.25 μmol/l, 0.14 μmol/l rFIXa) is given as 137 min/mA; the 1/V (inhibitor 40.8 μmol/l, MeSO2-D-HHT-Gly-Arg-pNA 0.51 μmol/l, 0.14 μmol/l rFIXa) amounted to 90.9 min/mA; the 1/V (inhibitor 40.8 μmol/l, MeSO2-D-HHT-Gly-Arg-pNA 1.02 μmol/l, 0.14 μmol/l rFIXa) is 31.2 min/mA. The Ki runs as follows: (rFIXa, substrate MeSO2-D-CHG-Gly-Arg-pNA) 16 µM; (recombinant FIXa, substrate MeSO2-D-HHT-Gly-Arg-pNA) 12 µM.
